# Laboratory results reported in US9663508B2, “Biaryl acyl-sulfonamide compounds as sodium channel inhibitors” (AMGEN INC., priority 2013, dated 2017).
# Biological target: human Nav1.7 (Homo sapiens (Human), UniProt Q15858)
# Assay: Nav 1.7 in vitro PatchXpress (PX) assay
# Format: cell-based
# Chain of human Nav1.7 (Q15858 whole entry): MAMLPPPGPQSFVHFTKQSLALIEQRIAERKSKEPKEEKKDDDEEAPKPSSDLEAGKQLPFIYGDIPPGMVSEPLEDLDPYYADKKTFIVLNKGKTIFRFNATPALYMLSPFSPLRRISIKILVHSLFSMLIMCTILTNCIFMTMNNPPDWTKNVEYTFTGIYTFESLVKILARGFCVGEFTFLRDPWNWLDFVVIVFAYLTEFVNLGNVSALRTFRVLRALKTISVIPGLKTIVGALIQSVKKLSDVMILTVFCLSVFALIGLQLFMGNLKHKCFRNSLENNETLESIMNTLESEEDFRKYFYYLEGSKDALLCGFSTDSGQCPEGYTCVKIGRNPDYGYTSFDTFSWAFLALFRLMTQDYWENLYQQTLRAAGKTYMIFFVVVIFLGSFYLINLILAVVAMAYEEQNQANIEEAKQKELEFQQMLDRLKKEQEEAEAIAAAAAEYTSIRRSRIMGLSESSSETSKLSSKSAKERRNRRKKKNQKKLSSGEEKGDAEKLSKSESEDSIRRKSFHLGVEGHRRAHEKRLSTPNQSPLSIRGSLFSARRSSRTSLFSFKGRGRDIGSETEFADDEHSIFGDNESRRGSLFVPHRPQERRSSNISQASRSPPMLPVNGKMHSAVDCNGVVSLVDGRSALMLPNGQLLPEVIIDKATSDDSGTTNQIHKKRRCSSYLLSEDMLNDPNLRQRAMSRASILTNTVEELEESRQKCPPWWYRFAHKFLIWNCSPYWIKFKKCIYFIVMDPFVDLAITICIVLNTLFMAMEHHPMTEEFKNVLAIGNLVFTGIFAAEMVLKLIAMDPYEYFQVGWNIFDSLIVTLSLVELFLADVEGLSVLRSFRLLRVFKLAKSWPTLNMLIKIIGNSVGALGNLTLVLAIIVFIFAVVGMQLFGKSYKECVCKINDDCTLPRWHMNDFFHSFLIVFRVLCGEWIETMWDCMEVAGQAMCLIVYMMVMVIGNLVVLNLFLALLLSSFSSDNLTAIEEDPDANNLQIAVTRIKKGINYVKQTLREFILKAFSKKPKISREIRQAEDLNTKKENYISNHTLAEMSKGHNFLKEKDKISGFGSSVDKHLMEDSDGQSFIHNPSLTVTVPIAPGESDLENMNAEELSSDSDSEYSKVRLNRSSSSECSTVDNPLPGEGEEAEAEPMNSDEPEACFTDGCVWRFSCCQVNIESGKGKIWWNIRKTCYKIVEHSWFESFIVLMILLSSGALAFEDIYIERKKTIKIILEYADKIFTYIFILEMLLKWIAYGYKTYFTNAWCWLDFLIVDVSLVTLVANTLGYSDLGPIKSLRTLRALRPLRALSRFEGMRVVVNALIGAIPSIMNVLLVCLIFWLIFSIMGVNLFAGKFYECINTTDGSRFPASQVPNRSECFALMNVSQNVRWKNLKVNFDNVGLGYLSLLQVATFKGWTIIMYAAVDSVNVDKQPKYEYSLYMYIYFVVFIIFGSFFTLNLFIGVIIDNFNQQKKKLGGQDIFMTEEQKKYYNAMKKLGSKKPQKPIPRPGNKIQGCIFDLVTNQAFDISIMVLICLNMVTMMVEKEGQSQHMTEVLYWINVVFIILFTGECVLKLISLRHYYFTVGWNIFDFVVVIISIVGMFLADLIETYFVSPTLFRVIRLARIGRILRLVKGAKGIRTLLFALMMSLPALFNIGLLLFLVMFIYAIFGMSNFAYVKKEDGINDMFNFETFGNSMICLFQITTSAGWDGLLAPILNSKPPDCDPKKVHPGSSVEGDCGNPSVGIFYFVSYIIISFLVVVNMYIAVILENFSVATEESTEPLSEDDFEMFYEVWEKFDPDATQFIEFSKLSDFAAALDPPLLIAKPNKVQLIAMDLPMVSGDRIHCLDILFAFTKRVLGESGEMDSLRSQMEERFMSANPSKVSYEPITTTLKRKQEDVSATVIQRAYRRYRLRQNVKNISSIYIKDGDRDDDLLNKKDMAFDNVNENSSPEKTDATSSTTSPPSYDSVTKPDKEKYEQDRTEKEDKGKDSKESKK
row,IC50,Structure (SMILES)
1,91.4 nM,"COc1ccc(Oc2ncc(-c3ccc(C(=O)NS(C)(=O)=O)cc3OC)cc2Cl)c(Cl)c1 [Example 365, 4-(5-chloro-6-(2-chloro-4-methoxyphenoxy)-3-pyridinyl)-3-methoxy-N-(methylsulfonyl)benzamide]"
2,72.3 nM,"CCc1cc(Oc2ncc(-c3ccc(C(=O)NS(C)(=O)=O)cc3OC)cc2Cl)ccc1Cl [Example 368, 4-(5-chloro-6-(4-chloro-3-ethylphenoxy)-3-pyridinyl)-3-methoxy-N-(methylsulfonyl)benzamide]"
3,90.5 nM,"COc1ccc(Cl)c(Oc2ncc(-c3ccc(C(=O)NS(C)(=O)=O)cc3OC)cc2Cl)c1 [Example 369, 4-(5-chloro-6-(2-chloro-5-methoxyphenoxy)-3-pyridinyl)-3-methoxy-N-(methylsulfonyl)benzamide]"
4,57 nM,"COc1cc(C(=O)NS(C)(=O)=O)ccc1-c1cnc(Oc2ccc(Cl)c(C(F)(F)F)c2)c(Cl)c1 [Example 370, 4-(5-chloro-6-(4-chloro-3-(trifluoromethyl)phenoxy)-3-pyridinyl)-3-methoxy-N-(methylsulfonyl)benzamide]"
5,80 nM,"COc1cc(C(=O)NS(C)(=O)=O)ccc1-c1cnc(Oc2cc(F)ccc2Cl)c(Cl)c1 [Example 371, 4-(5-chloro-6-(2-chloro-5-fluorophenoxy)-3-pyridinyl)-3-methoxy-N-(methylsulfonyl)benzamide]"
6,50.4 nM,"COc1cc(C(=O)NS(C)(=O)=O)ccc1-c1cnc(Oc2cc(Cl)cc(OC(F)(F)F)c2)c(Cl)c1 [Example 372, 4-(5-chloro-6-(3-chloro-5-(trifluoromethoxy)phenoxy)-3-pyridinyl)-3-methoxy-N-(methylsulfonyl)benzamide]"
7,66.2 nM,"COc1cc(C(=O)NS(C)(=O)=O)ccc1-c1cnc(Oc2ccc(Cl)c(OC(F)(F)F)c2)c(Cl)c1 [Example 373, 4-(5-chloro-6-(4-chloro-3-(trifluoromethoxy)phenoxy)-3-pyridinyl)-3-methoxy-N-(methylsulfonyl)benzamide]"
8,58.4 nM,"COc1cc(C(=O)NS(C)(=O)=O)ccc1-c1cnc(Oc2cc(Cl)cc(C(F)(F)F)c2)c(Cl)c1 [Example 374, 4-(5-chloro-6-(3-chloro-5-(trifluoromethyl)phenoxy)-3-pyridinyl)-3-methoxy-N-(methylsulfonyl)benzamide]"
9,60.3 nM,"COc1cc(C(=O)NS(C)(=O)=O)ccc1-c1cnc(Oc2ccc(Cl)cc2F)c(Cl)c1 [Example 376, 4-(5-chloro-6-(4-chloro-2-fluorophenoxy)-3-pyridinyl)-3-methoxy-N-(methylsulfonyl)benzamide]"
10,54.6 nM,"COc1cc(C(=O)NS(C)(=O)=O)ccc1-c1cnc(Oc2cc(Cl)ccc2C)c(Cl)c1 [Example 379, 4-(5-chloro-6-(5-chloro-2-methylphenoxy)-3-pyridinyl)-3-methoxy-N-(methylsulfonyl)benzamide]"
11,54 nM,"COc1cc(C(=O)NS(C)(=O)=O)ccc1-c1cnc(Oc2cc(Cl)cc(Cl)c2)c(C(F)F)c1 [Example 382, 4-(6-(3,5-dichlorophenoxy)-5-(difluoromethyl)-3-pyridinyl)-3-methoxy-N-(methylsulfonyl)benzamide]"
12,80 nM,"COc1cc(C(=O)NS(C)(=O)=O)ccc1-c1cnc(Oc2cccc(F)c2F)c(Cl)c1 [Example 402, 4-(5-chloro-6-(2,3-difluorophenoxy)-3-pyridinyl)-3-methoxy-N-(methylsulfonyl)benzamide]"
13,98.9 nM,"COc1ncc(Oc2ncc(-c3ccc(C(=O)NS(C)(=O)=O)cc3OC3COC3)cc2Cl)cc1Cl [Example 412, 4-(5-chloro-6-((5-chloro-6-methoxy-3-pyridinyl)oxy)-3-pyridinyl)-N-(methylsulfonyl)-3-(3-oxetanyloxy)benzamide]"
14,46.1 nM,"Cc1cc(Oc2ncc(-c3ccc(C(=O)NS(C)(=O)=O)cc3OC3COC3)cc2Cl)ccc1Cl [Example 413, 4-(5-chloro-6-(4-chloro-3-methylphenoxy)-3-pyridinyl)-N-(methylsulfonyl)-3-(3-oxetanyloxy)benzamide]"
15,98 nM,"CS(=O)(=O)NC(=O)c1ccc(-c2cnc(Oc3cccc4ccccc34)c(Cl)c2)c(OC2COC2)c1 [Example 419, 4-(5-chloro-6-(1-naphthalenyloxy)-3-pyridinyl)-N-(methylsulfonyl)-3-(3-oxetanyloxy)benzamide]"
16,31.3 nM,"CS(=O)(=O)NC(=O)c1ccc(-c2cnc(Oc3cc(Cl)cc(Cl)c3)c(Cl)c2)c(OC2COC2)c1 [Example 422, 4-(5-chloro-6-(3,5-dichlorophenoxy)-3-pyridinyl)-N-(methylsulfonyl)-3-(3-oxetanyloxy)benzamide]"
17,38.6 nM,"Cc1ccc(Cl)c(Oc2ncc(-c3ccc(C(=O)NS(C)(=O)=O)cc3OC3COC3)cc2Cl)c1 [Example 423, 4-(5-chloro-6-(2-chloro-5-methylphenoxy)-3-pyridinyl)-N-(methylsulfonyl)-3-(3-oxetanyloxy)benzamide]"
18,99.4 nM,"CS(=O)(=O)NC(=O)c1ccc(-c2cnc(Oc3ccc4ccccc4c3)c(Cl)c2)c(OC2COC2)c1 [Example 424, 4-(5-chloro-6-(2-naphthalenyloxy)-3-pyridinyl)-N-(methylsulfonyl)-3-(3-oxetanyloxy)benzamide]"

row,IC50,Structure (SMILES)
1,32.2 nM,"Cc1ccc(Oc2ncc(-c3ccc(C(=O)NS(C)(=O)=O)cc3OC3COC3)cc2Cl)cc1Cl [Example 425, 4-(5-chloro-6-(3-chloro-4-methylphenoxy)-3-pyridinyl)-N-(methylsulfonyl)-3-(3-oxetanyloxy)benzamide]"
2,75 nM,"Cc1cccc(Cl)c1Oc1ncc(-c2ccc(C(=O)NS(C)(=O)=O)cc2OC2COC2)cc1Cl [Example 426, 4-(5-chloro-6-(2-chloro-6-methylphenoxy)-3-pyridinyl)-N-(methylsulfonyl)-3-(3-oxetanyloxy)benzamide]"
3,92.2 nM,"COc1ncc(Oc2ncc(-c3ccc(C(=O)NS(C)(=O)=O)cc3OC(F)F)cc2Cl)cc1Cl [Example 436, 4-(5-chloro-6-((5-chloro-6-methoxy-3-pyridinyl)oxy)-3-pyridinyl)-3-(difluoromethoxy)-N-(methylsulfonyl)benzamide]"
4,74.8 nM,"CS(=O)(=O)NC(=O)c1ccc(-c2cnc(Oc3ccc4ccccc4c3)c(Cl)c2)c(OC(F)F)c1 [Example 446, 4-(5-chloro-6-(2-naphthalenyloxy)-3-pyridinyl)-3-(difluoromethoxy)-N-(methylsulfonyl)benzamide]"
5,79.2 nM,"Cc1ccc(Oc2ncc(-c3ccc(C(=O)NS(C)(=O)=O)cc3OC(F)F)cc2Cl)cc1Cl [Example 449, 4-(5-chloro-6-(3-chloro-4-methylphenoxy)-3-pyridinyl)-3-(difluoromethoxy)-N-(methylsulfonyl)benzamide]"
6,59.9 nM,"CS(=O)(=O)NC(=O)c1ccc(-c2cnc(Oc3cccc4ccccc34)c(Cl)c2)c(OC(F)F)c1 [Example 452, 4-(5-chloro-6-(1-naphthalenyloxy)-3-pyridinyl)-3-(difluoromethoxy)-N-(methylsulfonyl)benzamide]"
7,60.3 nM,"Cc1cc(Oc2ncc(-c3ccc(C(=O)NS(C)(=O)=O)cc3OC(F)F)cc2Cl)ccc1Cl [Example 453, 4-(5-chloro-6-(4-chloro-3-methylphenoxy)-3-pyridinyl)-3-(difluoromethoxy)-N-(methylsulfonyl)benzamide]"
8,58 nM,"C[C@@H](Oc1ncc(-c2ccc(C(=O)NS(C)(=O)=O)cc2OC(F)F)cc1Cl)c1ccccc1 [Example 455, 4-(5-chloro-6-((1R)-1-phenylethoxy)-3-pyridinyl)-3-(difluoromethoxy)-N-(methylsulfonyl)benzamide]"
9,64 nM,"CS(=O)(=O)NC(=O)c1ccc(-c2cnc(Oc3cccc(C(F)(F)F)c3)c(Cl)c2)c(OC(F)F)c1 [Example 456, 4-(5-chloro-6-(3-(trifluoromethyl)phenoxy)-3-pyridinyl)-3-(difluoromethoxy)-N-(methylsulfonyl)benzamide]"
10,80 nM,"C[C@H](Oc1ncc(-c2ccc(C(=O)NS(C)(=O)=O)cc2OC(F)F)cc1Cl)c1ccccc1 [Example 457, 4-(5-chloro-6-((1S)-1-phenylethoxy)-3-pyridinyl)-3-(difluoromethoxy)-N-(methylsulfonyl)benzamide]"
11,95 nM,"Cc1ccc(Oc2ncc(-c3ccc(C(=O)NS(C)(=O)=O)cc3OC(F)F)cc2Cl)cc1C [Example 459, 4-(5-chloro-6-(3,4-dimethylphenoxy)-3-pyridinyl)-3-(difluoromethoxy)-N-(methylsulfonyl)benzamide]"
12,33.7 nM,"CS(=O)(=O)NC(=O)c1ccc(-c2cnc(Oc3cc(Cl)cc(Cl)c3)c(Cl)c2)c(OC(F)F)c1 [Example 461, 4-(5-chloro-6-(3,5-dichlorophenoxy)-3-pyridinyl)-3-(difluoromethoxy)-N-(methylsulfonyl)benzamide]"
13,68.3 nM,"Cc1ccc(Cl)c(Oc2ncc(-c3ccc(C(=O)NS(C)(=O)=O)cc3OC(F)F)cc2Cl)c1 [Example 462, 4-(5-chloro-6-(2-chloro-5-methylphenoxy)-3-pyridinyl)-3-(difluoromethoxy)-N-(methylsulfonyl)benzamide]"
14,92.4 nM,"CS(=O)(=O)NC(=O)c1ccc(-c2cnc(Oc3ccccc3C(F)(F)F)c(Cl)c2)c(OC(F)F)c1 [Example 464, 4-(5-chloro-6-(2-(trifluoromethyl)phenoxy)-3-pyridinyl)-3-(difluoromethoxy)-N-(methylsulfonyl)benzamide]"
15,69.7 nM,"Cc1ccc(Oc2ncc(-c3ccc(C(=O)NS(C)(=O)=O)cc3OC(F)F)cc2Cl)c(Cl)c1 [Example 465, 4-(5-chloro-6-(2-chloro-4-methylphenoxy)-3-pyridinyl)-3-(difluoromethoxy)-N-(methylsulfonyl)benzamide]"
16,68.8 nM,"CS(=O)(=O)NC(=O)c1ccc(-c2cnc(Oc3ccc(Cl)cc3)c(Cl)c2)c(OC(F)F)c1 [Example 466, 4-(5-chloro-6-(4-chlorophenoxy)-3-pyridinyl)-3-(difluoromethoxy)-N-(methylsulfonyl)benzamide]"
17,78.8 nM,"CS(=O)(=O)NC(=O)c1ccc(-c2cnc(OCCc3ccccc3)c(Cl)c2)c(OC(F)F)c1 [Example 467, 4-(5-chloro-6-(2-phenylethoxy)-3-pyridinyl)-3-(difluoromethoxy)-N-(methylsulfonyl)benzamide]"
